Structures are written as SMILES. “And” between values parts separate entries of the source, which are not always exact repeats. Equal entries are not always repeated. Toxic doses and inconclusive results are not listed.

The subject of the assay is CD2F1 mice, L1210 leukemia sc, survival T/C. Kind of assay: NCI In Vivo Anticancer Drug Screen. Data for tumor model L1210 Leukemia (subcutaneous) in CD2F1 (CDF1) mice. Conditions: endpoint: median survival time, higher = longer survival. The essentials:
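Read-out: survival or tumor size. Value = treated (T) / vehicle control (C). Transplantable tumor in mice.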

For `N[C@@H](Cc1ccc(N(CCCl)CCCl)cc1)C(=O)O`, the T/C is, setting by setting: (dose: 0.31 mg/kg/injection, schedule: Q01DX009 (ip), vehicle: saline) 96 % of control; (dose: 0.31 mg/kg/injection, schedule: Q01DX009 (sc), vehicle: saline) 100 % of control; (dose: 0.62 mg/kg/injection, schedule: Q01DX009 (ip), vehicle: saline) 104 % of control; (dose: 0.62 mg/kg/injection, schedule: Q01DX009 (sc), vehicle: saline) 104 % of control; (dose: 0.63 mg/kg/injection, schedule: Q01DX009 (ip), vehicle: saline) 99 % of control; (dose: 1.0 mg/kg/injection, schedule: Q01DX009 (ip), vehicle: suspension in saline) 121 % of control. The T/C (dose: 1.0 mg/kg/injection, schedule: Q01DX009 (sc), vehicle: saline with Tween-80) is 105 % of control and 108 % of control; the T/C (dose: 1.25 mg/kg/injection, schedule: Q01DX009 (ip), vehicle: saline) is 112 % of control and 113 % of control and 121 % of control; the T/C (dose: 1.25 mg/kg/injection, schedule: Q01DX009 (sc), vehicle: saline) is 115 % of control and 121 % of control; the T/C (dose: 2.0 mg/kg/injection, schedule: Q01DX009 (sc), vehicle: saline with Tween-80) is 110 % of control and 124 % of control; the T/C (dose: 2.5 mg/kg/injection, schedule: Q01DX009 (ip), vehicle: saline) is 124 % of control; the T/C (dose: 3.0 mg/kg/injection, schedule: Q01DX009 (ip), vehicle: saline) is 153 % of control. Further, the T/C by setting is: (dose: 3.5 mg/kg/injection, schedule: Q01DX009 (ip), vehicle: saline) 168 % of control; (dose: 4.0 mg/kg/injection, schedule: Q01DX009 (ip), vehicle: saline) 173 % of control; (dose: 4.0 mg/kg/injection, schedule: Q01DX009 (ip), vehicle: suspension in saline) 169 % of control; (dose: 4.0 mg/kg/injection, schedule: Q01DX009 (sc), vehicle: saline with Tween-80) 163 % of control; (dose: 4.5 mg/kg/injection, schedule: Q01DX009 (ip), vehicle: saline) 169 % of control; (dose: 5.0 mg/kg/injection, schedule: Q01DX009 (sc), vehicle: saline) 153 % of control and 156 % of control. The T/C is, setting by setting: (dose: 5.3 mg/kg/injection, schedule: Q01DX009 (sc), vehicle: saline) 161 % of control; (dose: 7.5 mg/kg/injection, schedule: Q01DX009 (sc), vehicle: saline) 104 % of control; (dose: 8.0 mg/kg/injection, schedule: Q01DX009 (ip), vehicle: suspension in saline) 88 % of control; (dose: 8.0 mg/kg/injection, schedule: Q01DX009 (sc), vehicle: saline with Tween-80) 168 % of control; (dose: 10.0 mg/kg/injection, schedule: Q01DX009 (sc), vehicle: saline) 98 % of control; (dose: 16.0 mg/kg/injection, schedule: Q01DX009 (sc), vehicle: saline with Tween-80) 118 % of control and 87 % of control. In addition, the T/C is 110 % of control (dose: 18.0 mg/kg/injection, schedule: Q01DX009 (sc), vehicle: saline); 107 % of control (dose: 32.0 mg/kg/injection, schedule: Q01DX009 (sc), vehicle: saline with Tween-80); 108 % of control (dose: 64.0 mg/kg/injection, schedule: Q01DX009 (sc), vehicle: saline with Tween-80).

In the case of `CSC1SCC2C(=O)N(C)C(C(C)C)C(=O)OCC(NC(=O)c3cnc4ccccc4n3)C(=O)NC(C)C(=O)N(C)C1C(=O)N(C)C(C(C)C)C(=O)OCC(NC(=O)c1cnc3ccccc3n1)C(=O)NC(C)C(=O)N2C` (centres undefined), the T/C (dose: 7.5 micrograms/kg/injection, schedule: Q01DX009 (ip), vehicle: Klucel (hydroxypropylcellulose) (HPC)) is 98 % of control; the T/C (dose: 15.0 micrograms/kg/injection, schedule: Q01DX009 (ip), vehicle: Klucel (hydroxypropylcellulose) (HPC)) is 97 % of control; the T/C (dose: 30.0 micrograms/kg/injection, schedule: Q01DX009 (ip), vehicle: Klucel (hydroxypropylcellulose) (HPC)) is 96 % of control; the T/C (dose: 60.0 micrograms/kg/injection, schedule: Q01DX009 (ip), vehicle: Klucel (hydroxypropylcellulose) (HPC)) was 100 % of control; the T/C (dose: 120.0 micrograms/kg/injection, schedule: Q01DX009 (ip), vehicle: Klucel (hydroxypropylcellulose) (HPC)) was 102 % of control.

Regarding `Nc1ncnc2c1ccn2C1OC(CO)C(O)C1O` (centres undefined), the T/C (dose: 0.25 mg/kg/injection, schedule: Q01DX009 (ip), vehicle: Klucel (hydroxypropylcellulose) (HPC)) is 102 % of control; the T/C (dose: 0.5 mg/kg/injection, schedule: Q01DX009 (ip), vehicle: Klucel (hydroxypropylcellulose) (HPC)) is 97 % of control; the T/C (dose: 1.0 mg/kg/injection, schedule: Q01DX009 (ip), vehicle: Klucel (hydroxypropylcellulose) (HPC)) is 92 % of control; the T/C (dose: 2.0 mg/kg/injection, schedule: Q01DX009 (ip), vehicle: Klucel (hydroxypropylcellulose) (HPC)) was 95 % of control; the T/C (dose: 4.0 mg/kg/injection, schedule: Q01DX009 (ip), vehicle: Klucel (hydroxypropylcellulose) (HPC)) is 97 % of control; the T/C (dose: 8.0 mg/kg/injection, schedule: Q01DX009 (ip), vehicle: Klucel (hydroxypropylcellulose) (HPC)) was 102 % of control. Also, the T/C (dose: 16.0 mg/kg/injection, schedule: Q01DX009 (ip), vehicle: Klucel (hydroxypropylcellulose) (HPC)) is 101 % of control.

Take `CC[C@H](c1ccc(O)cc1)[C@@H](CC)c1ccc(O)cc1`: the T/C (dose: 130.0 mg/kg/injection, schedule: Q01DX Z (sc), vehicle: methylcellulose (MC)) is 111 % of control.

`CNCCN=c1ccc2c3c1c(O)c1c(O)ccc(=O)c1c3[nH]n2CCNCCO`: the T/C is 117 % of control (dose: 1.08 mg/kg/injection, schedule: Q01DX009 (ip), vehicle: water); 206 % of control (dose: 3.0 mg/kg/injection, schedule: Q01DX009 (ip), vehicle: water); 124 % of control (dose: 5.0 mg/kg/injection, schedule: Q01DX009 (ip), vehicle: water); 89 % of control (dose: 8.3 mg/kg/injection, schedule: Q01DX009 (ip), vehicle: water).

These data come from PubChem BioAssay AID258 (DTP/NCI, 2004).
